Laboratory results published in patent US7138361B2, “Herbicidal heterocycles” (E. I. du Pont de Nemours and Company, priority 2000, dated 2006).

Legend:
Format in all cases: in vivo
[1] = system: cocklebur (Xanthium strumarium); assay: Test B preemergence
In short: (§1)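 Greenhouse test: chemicals are formulated in a surfactant-containing non-phytotoxic solvent and applied either preemergence to planted seeds or postemergence to plants 2 to 18 cm tall. Response is rated visually versus controls after 13 to 15 days, 0 meaning no effect and 100 complete control.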

[2] = system: crabgrass (Digitaria sanguinalis); assay: Test B preemergence
In short: as §1

[3] = system: lambsquarters (Chenopodium album); assay: Test B preemergence
In short: as §1

[4] = system: pigweed (Amaranthus retroflexus); assay: Test B preemergence
In short: as §1

[5] = system: giant foxtail (Setaria faberii); assay: Test B preemergence
In short: as §1

[6] = system: velvetleaf (Abutilon theophrasti); assay: Test B preemergence
In short: as §1

corn (Zea mays) [7] = assay: Test B preemergence
In short: as §1

[8] = system: Surinam grass (Brachiaria decumbens); assay: Test B preemergence
In short: as §1

[9] = system: barnyardgrass (Echinochloa crus-galli); assay: Test B preemergence
In short: as §1

rice (Oryza saliva) [10] = assay: Test B preemergence
In short: as §1

[11] = system: morning glory (Ipomoea hederacea); assay: Test B preemergence
In short: as §1

[12] = system: duck salad (Heteranthera limosa); assay: Test C flooded paddy test; conditions: for Ducksalad plant response rating: Flooded Paddy, scale 0 to 100, 0 no effect, 100 complete control; for Plant response rating, Ducksalad: flooded paddy test, scale 0 to 100 (0 no effect, 100 complete control)
In short: (§2)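 Response on a 0-to-100 scale (no effect to complete control) was assessed by eye versus controls. Plants had reached 2 leaves when treated in flooded paddy conditions. The assessment took place after 12–14 days of greenhouse growth.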

[13] = system: smallflower flatsedge (Cyperus difformis); assay: Test C flooded paddy test; conditions: for Flatsedge plant response rating: Flooded Paddy, scale 0 to 100, 0 no effect, 100 complete control; for Plant response rating, Flatsedge: flooded paddy test, scale 0 to 100 (0 no effect, 100 complete control)
In short: as §2

[14] = system: barnyardgrass (Echinochloa crus-galli); assay: Test C flooded paddy test; conditions: for Barnyardgrass plant response rating: Flooded Paddy, scale 0 to 100, 0 no effect, 100 complete control; for Plant response rating, Barnyardgrass: flooded paddy test, scale 0 to 100 (0 no effect, 100 complete control)
In short: as §2

rice (Oryza saliva) [15] = assay: Test C flooded paddy test; conditions: for Rice plant response rating: Flooded Paddy, scale 0 to 100, 0 no effect, 100 complete control; for Plant response rating, Rice: flooded paddy test, scale 0 to 100 (0 no effect, 100 complete control)
In short: as §2

[16] = system: cocklebur (Xanthium strumarium); assay: Test B postemergence
In short: as §1

[17] = system: crabgrass (Digitaria sanguinalis); assay: Test B postemergence
In short: as §1

[18] = system: lambsquarters (Chenopodium album); assay: Test B postemergence
In short: as §1

[19] = system: pigweed (Amaranthus retroflexus); assay: Test B postemergence
In short: as §1

[20] = system: giant foxtail (Setaria faberii); assay: Test B postemergence
In short: as §1

[21] = system: velvetleaf (Abutilon theophrasti); assay: Test B postemergence
In short: as §1

wild oat (Avena fatua) = assay: Test B postemergence
In short: as §1

[22] = system: wheat (Triticum aestivum); assay: Test B postemergence
In short: as §1

corn (Zea mays) [23] = assay: Test B postemergence
In short: as §1

[24] = system: Surinam grass (Brachiaria decumbens); assay: Test B postemergence
In short: as §1

[25] = system: barnyardgrass (Echinochloa crus-galli); assay: Test B postemergence
In short: as §1

[26] = system: blackgrass (Alopecurus myosuroides); assay: Test B postemergence
In short: as §1

[27] = system: morning glory (Ipomoea hederacea); assay: Test B postemergence
In short: as §1

[28] = Preemergence, Rate 500 g/ha, scale 0 to 100, 0 no effect, 100 complete control
[29] = preemergence, Rate 125 g/ha, scale of 0 to 100 where 0 is no effect and 100 is complete control, 13 to 15 days
[30] = Rate 125 g/ha, scale 0 to 100, 0 no effect, 100 complete control
[31] = Rate 500 g/ha, scale 0 to 100, 0 is no effect, 100 is complete control, 13 to 15 days

In the case of `Cc1cccc(N2CCC(n3ccc(C(C)(C)C)n3)C2=O)c1` (stereo not shown) [Compound 112], the “Plant response rating, Cocklebur” value [1, 28] is reported as 0, the “Plant response rating, Cocklebur” value [1, 29] is reported as 0 and the “Plant response rating, Crabgrass” value [2, 28] is reported as 100. The “Plant response rating, Crabgrass” value [2, 29] was 100, the “Plant response rating, Lambsquarters” value [3, 28] was 100 and the “Plant response rating, Lambsquarters” value [3, 29] was 100. For the same compound, the “Plant response rating, Pigweed” value [4, 28] was 100, the “Plant response rating, Pigweed” value [4, 29] was 100 and the “Plant response rating, Foxtail, Giant” value [5, 28] was 100. For the same compound, the “Plant response rating, Foxtail, Giant” value [5, 29] was 100, the “Plant response rating, Velvetleaf” value [6, 28] was 0 and the “Plant response rating, Velvetleaf” value [6, 29] was 0. The “Plant response rating, Corn” value (corn (Zea mays) [7]; [28]) was 30, the “Plant response rating, Corn” value (corn (Zea mays) [7]; [29]) was 0 and the “Plant response rating, Surinam grass” value [8, 28] was 30. The “Plant response rating, Surinam grass” value [8, 29] was 10, the “Plant response rating, Barnyardgrass” value [9, 28] was 100 and the “Plant response rating, Barnyardgrass” value [9, 29] was 90. For the same compound, the “Plant response rating, Rice” value (rice (Oryza saliva) [10]; [28]) was 100, the “Plant response rating, Rice” value (rice (Oryza saliva) [10]; [29]) was 0 and the “Plant response rating, Morningglory” value [11, 28] was 30. The “Plant response rating, Morningglory” value [11, 29] was 30, the “Ducksalad plant response rating” value ([12]; Rate 250 g/ha) was 20 and the “Ducksalad plant response rating” value ([12]; Rate 500 g/ha) was 30. The “Plant response rating, Ducksalad” value ([12]; Rate 62 g/ha) was 0, the “Plant response rating, Ducksalad” value ([12]; Rate 125 g/ha) was 0 and the “Flatsedge plant response rating” value ([13]; Rate 250 g/ha) was 100. The “Flatsedge plant response rating” value ([13]; Rate 500 g/ha) was 100, the “Plant response rating, Flatsedge” value ([13]; Rate 62 g/ha) was 20 and the “Plant response rating, Flatsedge” value ([13]; Rate 125 g/ha) was 50. For the same compound, the “Barnyardgrass plant response rating” value ([14]; Rate 250 g/ha) was 20, the “Barnyardgrass plant response rating” value ([14]; Rate 500 g/ha) was 60 and the “Plant response rating, Barnyardgrass” value ([14]; Rate 62 g/ha) was 0. For the same compound, the “Plant response rating, Barnyardgrass” value ([14]; Rate 125 g/ha) was 0, the “Rice plant response rating” value (rice (Oryza saliva) [15]; Rate 250 g/ha) was 20 and the “Rice plant response rating” value (rice (Oryza saliva) [15]; Rate 500 g/ha) was 70. For the same compound, the “Plant response rating, Rice” value (rice (Oryza saliva) [15]; Rate 62 g/ha) was 0, the “Plant response rating, Rice” value (rice (Oryza saliva) [15]; Rate 125 g/ha) was 0 and the “Plant response rating, Cocklebur” value [16, 30] was 0. For the same compound, the “Plant response rating, Cocklebur” value [16, 31] was 0, the “Plant response rating, Crabgrass” value [17, 30] was 30 and the “Plant response rating, Crabgrass” value [17, 31] was 30. For the same compound, the “Plant response rating, Lambsquarters” value [18, 30] was 30, the “Plant response rating, Lambsquarters” value [18, 31] was 30 and the “Plant response rating, Pigweed” value [19, 30] was 60. For the same compound, the “Plant response rating, Pigweed” value [19, 31] was 80, the “Plant response rating, Foxtail, Giant” value [20, 30] was 0 and the “Plant response rating, Foxtail, Giant” value [20, 31] was 0. The “Plant response rating, Velvetleaf” value [21, 30] was 0, the “Plant response rating, Velvetleaf” value [21, 31] was 0 and the “Plant response rating, Wild Oat” value (wild oat (Avena fatua); [30]) was 30. For the same compound, the “Plant response rating, Wild Oat” value (wild oat (Avena fatua); [31]) was 60, the “Plant response rating, Wheat” value [22, 30] was 40 and the “Plant response rating, Wheat” value [22, 31] was 40. The “Plant response rating, Corn” value (corn (Zea mays) [23]; [30]) was 0, the “Plant response rating, Corn” value (corn (Zea mays) [23]; [31]) was 0 and the “Plant response rating, Surinam grass” value [24, 30] was 0. The “Plant response rating, Surinam grass” value [24, 31] was 100, the “Plant response rating, Barnyardgrass” value [25, 30] was 0 and the “Plant response rating, Barnyardgrass” value [25, 31] was 20. For the same compound, the “Plant response rating, Blackgrass” value [26, 30] was 0, the “Plant response rating, Blackgrass” value [26, 31] was 0 and the “Plant response rating, Morningglory” value [27, 30] was 20. The “Plant response rating, Morningglory” value [27, 31] was 50.
